# Patent US20250134863A1, “MEDICAL AGENT FOR TREATING OR SUPPRESSING PROGRESSION OF AMYOTROPHIC LATERAL SCLEROSIS” (MITSUBISHI TANABE PHARMA CORPORATION, priority 2022, published 2025)
# Key:
# ALS patients [1] = experiment: Post-hoc statistical analysis 2: ALSFRS-R total score from baseline to cycle 12 (16, 17 and 19 trials), MMRM; assay type: in vivo, human
# Excerpt: After a 12-week observation period, patients whose ALSFRS-R total score decreased by 1 to 4 points during that period were considered eligible for the trial. In the 16 trial, eligible patients were randomly divided into an edaravone treatment group and a placebo administration group, and patients in each group received administration for 24 weeks (cycles 1 to 6). After completing the 24-week double-blind portion of the 16 trial, patients who received edaravone (E) were randomly assigned to the 17 trial, and during a 24-week double-blind extension period (cycles 7 to 12), edaravone treatment (EE group) or placebo administration (EP group) was performed. On the other hand, all patients from the placebo (P) administration group received edaravone treatment (PE group). All patients received open-label edaravone treatment for the next 12 weeks (cycles 13 to 15).
# (§1) Edaravone was administered at a dose of 60 mg by intravenous infusion over 60 minutes, once daily. The infusion was given for 14 days in the first treatment cycle, and for 10 days out of the 14-day treatment period in all subsequent cycles. A 14-day drug holiday period was provided after each treatment cycle.
# Similar to the 16 trial, after a 12-week observation period, patients in the 19 trial were randomly divided into an edaravone treatment group and a placebo administration group, and patients in each group received administration for 24 weeks (cycles 1 to 6). In the 19 trial, after the double-blind treatment period, all patients received open-label edaravone treatment for an additional 24 weeks (cycles 7 to 12). Therefore, the 19 trial included an EE group and a PE group.
# In order to characterize the uric acid level and ALSFRS-R total score profiles at cycle 12, efficacy was analyzed in randomized ALS patients at the start of cycle 7 and randomized ALS patients who received the medical agent at least once after the start of cycle 7.
# Descriptive statistics (number of subjects, mean, standard deviation, minimum, maximum) were used to summarize the changes in uric acid levels (mg/dL) and ALSFRS-R total scores from baseline to cycle 12 for the entire population and for the Edaravone treatment group as a subgroup defined by the median baseline uric acid level (4.8 mg/dL). The median baseline uric acid level for all patients (4.8 mg/dL) was derived using the entire edaravone population, including the EE, PE, and EP groups in the 16 trial, the 17 trial, and the 19 trial.
# The least squares (LS) mean difference of the EE and EP treatment groups compared to the PE treatment group was estimated using a mixed-effects model for repeated measures (MMRM). By using the MMRM, the LS mean, standard error, 95% confidence interval (CI), and p-value for each group are calculated. The MMRM includes treatment group, time point, interaction between treatment group and time point, age (<65 years or >65 years), initial symptoms (bulbar or limb symptoms), ALS diagnostic criteria (ALS definite, ALS highly possible, ALS highly possible with positive test findings, ALS possible), change in ALSFRS-R total score during the 12-week observation period (−1/−2 or −3/−4), and use of riluzole (Yes or No) as fixed effects, and includes baseline of the ALSFRS-R total score or uric acid baseline (mg/dL) of the median subgroup as covariates. A compound symmetric covariance matrix was applied to model covariance of within-patient scores, and the Kenward-Roger approximation was applied to estimate a degrees of freedom of the criteria. The statistical significance level was set at a two-sided level of 0.05.
# ALS patients [2] = experiment: MCI186-19 trial (19 trial), randomized double-blind placebo-controlled phase 3, edaravone injection, ALSFRS-R; assay type: in vivo, human; conditions: edaravone group, placebo −7.50±0.66, p=0.0013
# Excerpt: Clinical trials using edaravone injections include two-group phase 3 trials. In the first phase 3 trials [MCI186-16 trial (hereinafter referred to as the 16 trial) and MCI186-17 trial (hereinafter referred to as the 17 trial)], it was shown that edaravone was involved in suppressing decline in ALS function compared to placebo, as evaluated by an ALSFRS-R total score. A subgroup showing a significant therapeutic effect of Edaravone has been identified by the 16 trial, and an inclusion criterion for this subgroup is also used in designing a second major phase 3 trial, that is, a 19 trial (MCI186-19).
# as §1
# The MCI186-19 trial (hereinafter referred to as the 19 trial) was a randomized, double-blind, parallel-group, placebo-controlled trial. Details of the trial are as described in NCT01492686, Reference 3 (Lancet Neurol 2017; 16 (7): 505-512) and Reference 4 (Amyotroph Lateral Scler Frontotemporal Degener 2017; 18 (suppl 1): 55-63). […]
# [3] = Subgroup with uric acid level baseline <4.8 mg/dL, EE group
# [4] = Subgroup with uric acid level baseline <4.8 mg/dL, EP group
# [5] = Subgroup with uric acid level baseline <4.8 mg/dL, PE group
# [6] = Subgroup with uric acid level baseline ≥4.8 mg/dL, EE group
# [7] = Subgroup with uric acid level baseline ≥4.8 mg/dL, EP group
# [8] = Subgroup with uric acid level baseline ≥4.8 mg/dL, PE group
compound,measurement,setting,value
"CC1=NN(c2ccccc2)C(=O)C1 [edaravone, 3-methyl-1-phenyl-2-pyrazolin-5-one]","ALSFRS-R total score change from BL to cycle 12, LS Mean (SE)","ALS patients [1]; Overall, EE group",−7.2 (1.17) points
same,"ALSFRS-R total score change from BL to cycle 12, Mean (SD)","ALS patients [1]; Overall, EE group",−8.1 points
same,"ALSFRS-R total score change from BL to cycle 12, Mean (SD)","ALS patients [1]; Overall, EE group, listed as Edaravone",−8.1 (5.97) points
same,"ALSFRS-R total score change from BL to cycle 12, LS Mean (SE)","ALS patients [1]; Overall, EP group",−8.7 (1.28) points
same,"ALSFRS-R total score change from BL to cycle 12, Mean (SD)","ALS patients [1]; Overall, EP group",−9.6 (6.88) points
same,"ALSFRS-R total score at Cycle 12, Mean (SD)","ALS patients [1]; Overall, Edaravone-Edaravone (EE) group",33.3 (7.66) points
same,"ALSFRS-R total score at Cycle 12, Mean (SD)","ALS patients [1]; Overall, Edaravone-Placebo (EP) group",31.3 (7.74) points
same,"ALSFRS-R total score change from BL to cycle 12, LS Mean (SE)","ALS patients [1]; Overall, PE group",−9.9 (1.12) points
same,"ALSFRS-R total score change from BL to cycle 12, Mean (SD)","ALS patients [1]; Overall, PE group",−10.3 (7.70) points
same,"ALSFRS-R total score at Cycle 12, Mean (SD)","ALS patients [1]; Overall, Placebo-Edaravone (PE) group",31.2 (8.64) points
same,"ALSFRS-R total score at Cycle 12, Mean (SD)",ALS patients [1]; [3],32.6 (8.48) points
same,"ALSFRS-R total score change from BL to cycle 12, LS Mean (SE)",ALS patients [1]; [3],−7.0 (1.38) points
same,"ALSFRS-R total score change from BL to cycle 12, Mean (SD)",ALS patients [1]; [3],−8.7 points
same,"ALSFRS-R total score change from BL to cycle 12, Mean (SD)","ALS patients [1]; Subgroup with uric acid level baseline <4.8 mg/dL, EE group, listed as Edaravone",−8.7 (6.95) points
same,"ALSFRS-R total score at Cycle 12, Mean (SD)",ALS patients [1]; [4],31.5 (7.66) points
same,"ALSFRS-R total score change from BL to cycle 12, LS Mean (SE)",ALS patients [1]; [4],−7.8 (1.78) points
same,"ALSFRS-R total score change from BL to cycle 12, Mean (SD)",ALS patients [1]; [4],−9.7 (7.17) points
same,"ALSFRS-R total score at Cycle 12, Mean (SD)",ALS patients [1]; [5],31.6 (7.99) points
same,"ALSFRS-R total score change from BL to cycle 12, LS Mean (SE)",ALS patients [1]; [5],−8.5 (1.37) points
same,"ALSFRS-R total score change from BL to cycle 12, Mean (SD)",ALS patients [1]; [5],−9.7 (7.30) points
same,"ALSFRS-R total score at Cycle 12, Mean (SD)",ALS patients [1]; [6],34.0 (6.65) points
same,"ALSFRS-R total score change from BL to cycle 12, LS Mean (SE)",ALS patients [1]; [6],−8.1 (0.91) points
same,"ALSFRS-R total score change from BL to cycle 12, Mean (SD)",ALS patients [1]; [6],−7.4 points
same,"ALSFRS-R total score change from BL to cycle 12, Mean (SD)","ALS patients [1]; Subgroup with uric acid level baseline ≥4.8 mg/dL, EE group, listed as Edaravone",−7.4 (4.63) points
same,"ALSFRS-R total score at Cycle 12, Mean (SD)",ALS patients [1]; [7],31.1 (7.97) points
same,"ALSFRS-R total score change from BL to cycle 12, LS Mean (SE)",ALS patients [1]; [7],−10.3 (1.05) points
same,"ALSFRS-R total score change from BL to cycle 12, Mean (SD)",ALS patients [1]; [7],−9.5 (6.82) points
same,"ALSFRS-R total score at Cycle 12, Mean (SD)",ALS patients [1]; [8],30.8 (9.20) points
same,"ALSFRS-R total score change from BL to cycle 12, LS Mean (SE)",ALS patients [1]; [8],−12.0 (0.77) points
same,"ALSFRS-R total score change from BL to cycle 12, Mean (SD)",ALS patients [1]; [8],−10.9 (8.03) points
same,LS mean±standard error of the change in ALSFRS-R from baseline to 24 weeks,ALS patients [2],−5.01±0.64
